Source: paper PMC9832345 (RSC Advances, 2023)

System: third instar larvae of Spodoptera litura
Assay: Leaf-dip larvicidal assay
Assay type: in vivo
Settings: for Eating area (%): 96 h

Row | SMILES | Eating area (%) (6.25 ppm) | Eating area (%) (12.5 ppm) | eating area (concentration not given)
1 | Cc1cc(Cl)cc(S(C)(=O)=O)c1NC(=O)c1cc(Br)nn1-c1ncccc1Cl [Compound 8] | 0–5% | 0–5% | 
2 | CNC(=O)c1cc(Cl)cc(C)c1NC(=O)c1cc(Br)nn1-c1ncccc1Cl [Chlorantraniliprole, chlorantraniliprole] | 0–5% | 0–5% | 0–5%
